Laboratory results as given in ChEMBL document CHEMBL4421722, “Inhibitors of protein prenyltransferases” (2013).
Calls of active or inactive are those of the source. No cut-off for these calls is given here.

Organism: Rattus norvegicus
Assay: Inhibition of rat recombinant geranylgeranyltransferase type I expressed in Escherichia coli assessed as residual enzyme activity for geranylgeranylation of K-Ras4B at 50 uM incubated for 30 mins in presence of [3H]GGPP by scintillation counting assay relative to control
Conditions: not given
With Cc1ccccc1S(=O)(=O)N1[C@@H](c2cccc(Cl)c2)C(C(=O)O)=CC[C@H]1c1ccc(Cl)cc1 the Activity was 14.7 to 41.7%. With CCC[C@@H]1[C@@H](Sc2ccc(OC)cc2)[C@@H](C(=O)O)[C@H](c2ccc(Cl)c(Cl)c2)N1S(=O)(=O)c1ccc(C)cc1 the Activity was 10.9%. In the case of CC(C)(C)OC(=O)CCS[C@H]1[C@@H](C(=O)O)[C@H](c2ccc(Cl)cc2)N(S(=O)(=O)c2ccc(Cl)cc2)[C@@H]1CC1CCCC1, the Activity is reported as 22.5%. Cc1ccc(S(=O)(=O)N2[C@@H](c3cccc(F)c3)C(C(=O)O)=C[C@H]2C(C)(C)C)cc1 gave an Activity of 23.7%. For Cc1ccc(S(=O)(=O)N2[C@H](CC3CCCC3)[C@@H](SCCC(=O)OC(C)(C)C)[C@@H](C(=O)O)[C@@H]2c2cccc(Cl)c2)cc1, the Activity was 20.6%. In the case of CC(C)(C)OC(=O)CCS[C@H]1[C@@H](C(=O)O)[C@H](c2ccc(Cl)cc2)N(S(=O)(=O)c2ccccc2)[C@@H]1CC1CCCC1, the Activity is reported as 30.4%.

Organism: Rattus norvegicus
Assay: Inhibition of rat recombinant geranylgeranyltransferase type I expressed in Escherichia coli assessed as residual enzyme activity for geranylgeranylation of RhoA at 50 uM incubated for 30 mins in presence of [3H]GGPP by scintillation counting assay relative to control
Conditions: not given
Molecule Cc1ccccc1S(=O)(=O)N1[C@@H](c2cccc(Cl)c2)C(C(=O)O)=CC[C@H]1c1ccc(Cl)cc1 has an Activity of 7.5 to 24.8%. Molecule CCC[C@@H]1[C@@H](Sc2ccc(OC)cc2)[C@@H](C(=O)O)[C@H](c2ccc(Cl)c(Cl)c2)N1S(=O)(=O)c1ccc(C)cc1 has an Activity of 1.1%. For CC(C)(C)OC(=O)CCS[C@H]1[C@@H](C(=O)O)[C@H](c2ccc(Cl)cc2)N(S(=O)(=O)c2ccc(Cl)cc2)[C@@H]1CC1CCCC1, the Activity was 9.8%. Work on Cc1ccc(S(=O)(=O)N2[C@@H](c3cccc(F)c3)C(C(=O)O)=C[C@H]2C(C)(C)C)cc1 yielded an Activity of 9.1%. Molecule Cc1ccc(S(=O)(=O)N2[C@H](CC3CCCC3)[C@@H](SCCC(=O)OC(C)(C)C)[C@@H](C(=O)O)[C@@H]2c2cccc(Cl)c2)cc1 has an Activity of 5.6%. With CC(C)(C)OC(=O)CCS[C@H]1[C@@H](C(=O)O)[C@H](c2ccc(Cl)cc2)N(S(=O)(=O)c2ccccc2)[C@@H]1CC1CCCC1 the Activity was 9.7%.

Tested on: not listed separately
Assay: Inhibition of rat recombinant geranylgeranyltransferase type I expressed in Escherichia coli assessed as reduction in geranylgeranylation of K-Ras4B incubated for 30 mins in presence of [3H]GGPP by scintillation counting assay
Conditions: not given
With CCC[C@@H]1[C@@H](Sc2ccc(OC)cc2)[C@@H](C(=O)O)[C@H](c2ccc(Cl)c(Cl)c2)N1S(=O)(=O)c1ccc(C)cc1 the IC50 was < 2 µM. With Cc1ccc(S(=O)(=O)N2[C@@H](c3cccc(F)c3)C(C(=O)O)=C[C@H]2C(C)(C)C)cc1 the IC50 was 18 µM. Cc1ccc(S(=O)(=O)N2[C@@H](c3ccc(Cl)c(Cl)c3)C(C(=O)O)=C[C@H]2C(C)(C)C)cc1 showed an IC50 of 33 µM.

Tested on: not listed separately
Assay: Inhibition of rat recombinant geranylgeranyltransferase type I expressed in Escherichia coli assessed as reduction in geranylgeranylation of RhoA incubated for 30 mins in presence of [3H]GGPP by scintillation counting assay relative to control
Conditions: not given
Cc1ccccc1S(=O)(=O)N1[C@@H](c2cccc(Cl)c2)C(C(=O)O)=CC[C@H]1c1ccc(Cl)cc1 gave an IC50 of 0.31 to 0.313 µM. In the case of CCC[C@@H]1[C@@H](Sc2ccc(OC)cc2)[C@@H](C(=O)O)[C@H](c2ccc(Cl)c(Cl)c2)N1S(=O)(=O)c1ccc(C)cc1, the IC50 is reported as < 2.5 µM. In the case of CCCCCCS[C@H]1[C@@H](C(=O)O)[C@H](c2ccc(Br)cc2)N(S(=O)(=O)c2ccc(C)cc2)[C@@H]1CCCCCC, the IC50 is reported as > 50 µM. CC(C)(C)OC(=O)CCS[C@H]1[C@@H](C(=O)O)[C@H](c2ccc(Cl)cc2)N(S(=O)(=O)c2ccc(Cl)cc2)[C@@H]1CC1CCCC1 showed an IC50 of 8.9 µM. With CCCCCCS[C@H]1[C@@H](C(=O)O)[C@H](c2ccc(Cl)c(Cl)c2)N(S(=O)(=O)c2ccc(C)cc2)[C@@H]1CCC the IC50 was 5.1 µM. With Cc1ccc(S(=O)(=O)N2[C@@H](c3cccc(F)c3)C(C(=O)O)=C[C@H]2C(C)(C)C)cc1 the IC50 was 23 µM. Cc1ccc(S(=O)(=O)N2[C@H](CC3CCCC3)[C@@H](SCCC(=O)OC(C)(C)C)[C@@H](C(=O)O)[C@@H]2c2cccc(Cl)c2)cc1 gave an IC50 of 8.7 µM. Molecule CC(C)(C)OC(=O)CCS[C@H]1[C@@H](C(=O)O)[C@H](c2ccc(Cl)cc2)N(S(=O)(=O)c2ccccc2)[C@@H]1CC1CCCC1 has an IC50 of 2.4 µM. Cc1ccc(S(=O)(=O)N2[C@@H](c3ccc(Cl)c(Cl)c3)C(C(=O)O)=C[C@H]2C(C)(C)C)cc1 gave an IC50 of 40 µM.

Tested on: K562
Assay: Antiproliferative activity against human K562 cells assessed as inhibition of cell proliferation incubated for 72 hrs by CCK8 assay
Format: functional, cell-based
Conditions: not given
In the case of Cc1ccccc1S(=O)(=O)N1[C@@H](c2cccc(Cl)c2)C(C(=O)O)=CC[C@H]1c1ccc(Cl)cc1, the inhibition is reported as “Active”.

Biological target: T1, Geranylgeranyl transferase type-2 (Homo sapiens, UniProt P53611+Q92696)
T1 sequence (P53611 whole entry): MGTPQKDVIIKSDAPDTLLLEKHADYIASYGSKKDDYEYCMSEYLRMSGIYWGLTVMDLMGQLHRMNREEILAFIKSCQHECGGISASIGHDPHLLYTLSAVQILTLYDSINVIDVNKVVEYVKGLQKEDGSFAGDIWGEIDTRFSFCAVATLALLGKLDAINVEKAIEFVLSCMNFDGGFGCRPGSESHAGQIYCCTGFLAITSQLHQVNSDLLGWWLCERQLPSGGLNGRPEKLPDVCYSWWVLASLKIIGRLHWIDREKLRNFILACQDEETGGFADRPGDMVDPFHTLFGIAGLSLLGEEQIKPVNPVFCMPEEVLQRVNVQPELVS
T1 sequence (Q92696 whole entry): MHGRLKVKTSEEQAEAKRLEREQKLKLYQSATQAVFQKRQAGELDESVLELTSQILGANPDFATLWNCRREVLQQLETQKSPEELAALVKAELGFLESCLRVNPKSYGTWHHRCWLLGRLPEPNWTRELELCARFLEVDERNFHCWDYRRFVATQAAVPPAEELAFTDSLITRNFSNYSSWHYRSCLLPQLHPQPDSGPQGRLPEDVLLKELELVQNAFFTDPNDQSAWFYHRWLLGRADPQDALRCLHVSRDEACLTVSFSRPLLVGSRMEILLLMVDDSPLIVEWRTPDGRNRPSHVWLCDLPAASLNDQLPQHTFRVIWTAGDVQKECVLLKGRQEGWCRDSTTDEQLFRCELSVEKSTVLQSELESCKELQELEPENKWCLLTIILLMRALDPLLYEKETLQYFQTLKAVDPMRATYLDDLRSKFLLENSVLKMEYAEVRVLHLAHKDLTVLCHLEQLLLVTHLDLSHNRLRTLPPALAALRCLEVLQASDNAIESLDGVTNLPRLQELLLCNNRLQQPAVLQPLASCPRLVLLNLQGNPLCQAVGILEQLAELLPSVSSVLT
Assay: Inhibition of RabGGTase (unknown origin) using YPTI as substrate protein and [3H]geranylgeranyl pyrophosphate incubated for 20 mins by scintillation counting assay
Format: protein-complex assay
Conditions: not given
Work on CCCCCCS[C@H]1[C@@H](C(=O)O)[C@H](c2ccc(Br)cc2)N(S(=O)(=O)c2ccc(C)cc2)[C@@H]1CCCCCC yielded an IC50 of 2.2 µM. For CC(C)(C)OC(=O)CCS[C@H]1[C@@H](C(=O)O)[C@H](c2ccc(Cl)cc2)N(S(=O)(=O)c2ccc(Cl)cc2)[C@@H]1CC1CCCC1, the IC50 was 3.1 µM. CCCCCCS[C@H]1[C@@H](C(=O)O)[C@H](c2ccc(Cl)c(Cl)c2)N(S(=O)(=O)c2ccc(C)cc2)[C@@H]1CCC showed an IC50 of 7 µM. Cc1ccc(S(=O)(=O)N2[C@H](CC3CCCC3)[C@@H](SCCC(=O)OC(C)(C)C)[C@@H](C(=O)O)[C@@H]2c2cccc(Cl)c2)cc1 showed an IC50 of 4.7 µM. For CC(C)(C)OC(=O)CCS[C@H]1[C@@H](C(=O)O)[C@H](c2ccc(Cl)cc2)N(S(=O)(=O)c2ccccc2)[C@@H]1CC1CCCC1, the IC50 was 7 µM.

Biological target: Protein farnesyltransferase (Rattus norvegicus, UniProt Q02293+Q04631)
Assay: Inhibition of rat recombinant FTase alpha/beta expressed in Escherichia coli using K-Ras4B as a substrate as and [3H]farnesyl pyrophosphate incubated for 30 mins by scintillation counting assay
Conditions: not given
With CCCCCCS[C@H]1[C@@H](C(=O)O)[C@H](c2ccc(Br)cc2)N(S(=O)(=O)c2ccc(C)cc2)[C@@H]1CCCCCC the IC50 was > 100 µM. For CC(C)(C)OC(=O)CCS[C@H]1[C@@H](C(=O)O)[C@H](c2ccc(Cl)cc2)N(S(=O)(=O)c2ccc(Cl)cc2)[C@@H]1CC1CCCC1, the IC50 was > 100 µM. With CCCCCCS[C@H]1[C@@H](C(=O)O)[C@H](c2ccc(Cl)c(Cl)c2)N(S(=O)(=O)c2ccc(C)cc2)[C@@H]1CCC the IC50 was > 100 µM. In the case of Cc1ccc(S(=O)(=O)N2[C@H](CC3CCCC3)[C@@H](SCCC(=O)OC(C)(C)C)[C@@H](C(=O)O)[C@@H]2c2cccc(Cl)c2)cc1, the IC50 is reported as > 100 µM. With CC(C)(C)OC(=O)CCS[C@H]1[C@@H](C(=O)O)[C@H](c2ccc(Cl)cc2)N(S(=O)(=O)c2ccccc2)[C@@H]1CC1CCCC1 the IC50 was > 100 µM.

Tested on: Jurkat
Assay: Antiproliferative activity against human Jurkat cells assessed as inhibition of cell proliferation incubated for 72 hrs by CCK8 assay
Format: functional, cell-based
Conditions: not given
In the case of Cc1ccccc1S(=O)(=O)N1[C@@H](c2cccc(Cl)c2)C(C(=O)O)=CC[C@H]1c1ccc(Cl)cc1, the GI50 is reported as 20 µM.

Organism: Rattus norvegicus
Assay: (§1) Competitive inhibition of rat recombinant geranylgeranyltransferase type I expressed in Escherichia coli assessed as reduction in geranylgeranylation of RhoA incubated for 30 mins in presence of fixed level of [3H]GGPP and varying RhoA levels by scintillation counting assay relative to control
Conditions: not given
In the case of Cc1ccccc1S(=O)(=O)N1[C@@H](c2cccc(Cl)c2)C(C(=O)O)=CC[C@H]1c1ccc(Cl)cc1, the inhibition is reported as “Active”.

Organism: Rattus norvegicus
Assay: Competitive inhibition of rat recombinant geranylgeranyltransferase type I expressed in Escherichia coli assessed as reduction in geranylgeranylation of RhoA incubated for 30 mins in presence of varying level of [3H]GGPP and fixed RhoA levels by scintillation counting assay relative to control
Conditions: not given
With Cc1ccccc1S(=O)(=O)N1[C@@H](c2cccc(Cl)c2)C(C(=O)O)=CC[C@H]1c1ccc(Cl)cc1 the inhibition was “inactive”.

Tested on: HEK293
Assay: Inhibition of geranylgeranyltransferase type I in HEK293 cells expressing Myc-HA-tagged Rheb-WT assessed as effect on unprenylated Rap1 accumulation at 3.1 to 25 uM incubated for 48 hrs by SDS-PAGE and immunoblot analysis
Format: cell-based
Conditions: Homo sapiens
In the case of Cc1ccccc1S(=O)(=O)N1[C@@H](c2cccc(Cl)c2)C(C(=O)O)=CC[C@H]1c1ccc(Cl)cc1, the inhibition is reported as “Active”.

Tested on: HEK293
Assay: Inhibition of geranylgeranyltransferase type I in HEK293 cells expressing Myc-HA-tagged Rheb-CVSL assessed as effect on unprenylated Rap1 accumulation at 12.5 to 50 uM incubated for 48 hrs by SDS-PAGE and immunoblot analysis
Format: cell-based
Conditions: Homo sapiens
In the case of Cc1ccccc1S(=O)(=O)N1[C@@H](c2cccc(Cl)c2)C(C(=O)O)=CC[C@H]1c1ccc(Cl)cc1, the inhibition is reported as “Active”.

Tested on: K562
Assay: Induction of cell cycle arrest in human K562 cells assessed as accumulation at G1 phase up to […] incubated for 48 hrs by flow cytometry
Format: functional, cell-based
Conditions: not given
With Cc1ccccc1S(=O)(=O)N1[C@@H](c2cccc(Cl)c2)C(C(=O)O)=CC[C@H]1c1ccc(Cl)cc1 the Activity was “Active”.

Biological target: Geranylgeranyl transferase type-2 (Homo sapiens) (UniProt P53611+Q92696)
Assay: Inhibition of RabGGTase (unknown origin) at 50000 nM using YPTI as substrate protein and [3H]geranylgeranyl pyrophosphate incubated for 20 mins by scintillation counting assay
Format: protein-complex assay
Conditions: not given
For Cc1ccccc1S(=O)(=O)N1[C@@H](c2cccc(Cl)c2)C(C(=O)O)=CC[C@H]1c1ccc(Cl)cc1, the inhibition was “inactive”.

Biological target: Protein farnesyltransferase (Rattus norvegicus) (UniProt Q04631+Q02293)
Assay: Inhibition of rat recombinant FTase alpha/beta expressed in Escherichia coli at 50000 nM using K-Ras4B as a substrate as and [3H]farnesyl pyrophosphate incubated for 30 mins by scintillation counting assay
Conditions: not given
In the case of Cc1ccccc1S(=O)(=O)N1[C@@H](c2cccc(Cl)c2)C(C(=O)O)=CC[C@H]1c1ccc(Cl)cc1, the inhibition is reported as “inactive”.

Organism: Rattus norvegicus
Assay: as §1, with “Uncompetitive” for “Competitive”, “varying” for “fixed”, “fixed” for “varying”, “by Michaelis-Menten plot analysis” for “relative to control”
Conditions: not given
With Cc1ccccc1S(=O)(=O)N1[C@@H](c2cccc(Cl)c2)C(C(=O)O)=CC[C@H]1c1ccc(Cl)cc1 the inhibition was “Active”.
